# Source: the Kinase Knowledgebase extract (Sharma et al. 2016)
# pIC50: −log10 of the molar value.
# Target: EGFR (UniProt P00533)
# Sequence (P00533 whole entry, looked up): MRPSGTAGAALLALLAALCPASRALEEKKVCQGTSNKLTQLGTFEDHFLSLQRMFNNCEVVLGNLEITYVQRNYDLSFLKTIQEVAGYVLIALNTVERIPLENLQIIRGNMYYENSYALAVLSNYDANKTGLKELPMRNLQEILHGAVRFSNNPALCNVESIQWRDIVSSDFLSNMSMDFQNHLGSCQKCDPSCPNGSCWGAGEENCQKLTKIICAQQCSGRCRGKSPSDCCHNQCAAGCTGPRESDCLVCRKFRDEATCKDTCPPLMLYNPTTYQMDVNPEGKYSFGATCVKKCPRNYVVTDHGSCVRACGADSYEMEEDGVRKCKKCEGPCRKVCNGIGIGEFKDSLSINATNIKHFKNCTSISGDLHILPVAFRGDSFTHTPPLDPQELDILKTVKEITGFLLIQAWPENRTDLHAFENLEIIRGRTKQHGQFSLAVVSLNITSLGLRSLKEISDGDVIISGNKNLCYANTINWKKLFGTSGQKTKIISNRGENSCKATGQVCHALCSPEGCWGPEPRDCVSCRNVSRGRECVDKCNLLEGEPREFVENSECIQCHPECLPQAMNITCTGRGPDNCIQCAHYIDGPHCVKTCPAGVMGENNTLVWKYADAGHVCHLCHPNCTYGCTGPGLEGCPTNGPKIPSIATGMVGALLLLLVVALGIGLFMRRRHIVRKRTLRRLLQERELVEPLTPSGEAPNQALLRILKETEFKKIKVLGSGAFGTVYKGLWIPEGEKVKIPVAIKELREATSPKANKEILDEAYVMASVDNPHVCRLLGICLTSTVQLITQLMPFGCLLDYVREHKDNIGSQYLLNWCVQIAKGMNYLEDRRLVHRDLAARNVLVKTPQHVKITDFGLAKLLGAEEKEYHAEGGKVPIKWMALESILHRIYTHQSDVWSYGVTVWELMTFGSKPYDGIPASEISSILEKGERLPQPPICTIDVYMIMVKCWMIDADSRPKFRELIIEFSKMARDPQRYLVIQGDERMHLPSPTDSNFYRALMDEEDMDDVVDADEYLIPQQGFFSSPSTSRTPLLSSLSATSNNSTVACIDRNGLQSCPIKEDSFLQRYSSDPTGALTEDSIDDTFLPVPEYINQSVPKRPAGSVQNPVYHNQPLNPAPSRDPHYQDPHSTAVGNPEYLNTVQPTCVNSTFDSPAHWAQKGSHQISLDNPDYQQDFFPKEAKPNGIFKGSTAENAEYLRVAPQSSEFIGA
row,SMILES,pIC50
1,CS(=O)(=O)CCNCCCc1ccc(-c2ccc3ncnc(Nc4ccc(OCc5ccccc5)c(Cl)c4)c3c2)o1,> 7.00
2,O=S(=O)(CCNCc1ccc(-c2ccc3ncnc(Nc4ccc(OCc5cccc(F)c5)c(Cl)c4)c3c2)o1)c1ccccc1,> 7.00
3,CCCS(=O)(=O)CCNCc1ccc(-c2ccc3ncnc(Nc4ccc(OCc5cccc(F)c5)c(Cl)c4)c3c2)o1,> 7.00
4,CCCS(=O)(=O)CCNCc1ccc(-c2cc3c(Nc4ccc(OCc5cccc(F)c5)cc4)ncnc3cn2)o1,> 7.00
5,CCN(CCS(C)(=O)=O)Cc1ccc(-c2ccc3ncnc(Nc4ccc(OCc5cccc(F)c5)c(Cl)c4)c3c2)o1,> 7.00
6,CCCN(CCS(C)(=O)=O)Cc1ccc(-c2ccc3ncnc(Nc4ccc(OCc5cccc(F)c5)c(Cl)c4)c3c2)o1,> 7.00
7,O=S(=O)(CCNCc1ccc(-c2ccc3ncnc(Nc4ccc(OCc5cccc(F)c5)c(Cl)c4)c3c2)o1)c1ccccn1,> 7.00
8,Cn1ccnc1S(=O)(=O)CCNCc1ccc(-c2ccc3ncnc(Nc4ccc(OCc5cccc(F)c5)c(Cl)c4)c3c2)o1,> 7.00
9,C=CS(=O)(=O)CCOCc1ccc(-c2ccc3ncnc(Nc4ccc(OCc5cccc(F)c5)c(Cl)c4)c3c2)o1,> 7.00
10,CS(=O)(=O)CCN(CC#N)Cc1ccc(-c2ccc3ncnc(Nc4ccc(OCc5cccc(F)c5)c(Cl)c4)c3c2)o1,> 7.00
11,O=S(=O)(CCOCc1ccc(-c2ccc3ncnc(Nc4ccc(OCc5cccc(F)c5)c(Cl)c4)c3c2)o1)c1ccccc1,> 7.00
12,CS(=O)(=O)CCOCc1ccc(-c2ccc3ncnc(Nc4ccc(OCc5cccc(F)c5)c(Cl)c4)c3c2)o1,> 7.00
